From the supplement of paper PMC11208160

Assay: recombinant UMI read abundance after kanamycin selection (control-corrected) (log10(CPM+1)); higher = more efficient recombination; extreme values may be limits of the assay; sequences stand for … in AGTGCAGAGAAAATCGGCCAGTTTTCTCTGCCTGCAGTCCGCATGCCGTGGGACCCCTTGGGTTCTAACCTGTTGCCTAGATTTATGCAGCGGACTGCCTTTCTCCCAAAGTGATAAACCGG…AGGTTGGTTTCACT; site = the 11-nt donor
Summary of the method: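 Under IPTG (0.07 mM) plus kanamycin, or without selection, Escherichia coli carrying a UMI-tagged donor and donor-binding-loop pair library and a target plasmid for the IS621 bridge recombinase were plated in two replicates. Recombinant UMIs were PCR-amplified across the donor–target junction and sequenced. Counts were converted to CPM, averaged over replicates, scaled by control-derived factors and reported as log10(CPM+1).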
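Also: IS621 bridge recombinase in Escherichia coli cells against a fixed T5 target plasmid.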

## CCCATATCATGGACCGGTTTTCCCGGTAATCCGTATTTGTC (site CCCATATCTGA)
  recombinant UMI read abundance (log10): 0.747

## CCCATATCATGGACCGGTTTTCCCGGTAATCCGTATTTGTC (site CCCATATCTGC)
  recombinant UMI read abundance (log10): 0

## CCCATATCATGGACCGGTTTTCCCGGTAATCCGTATTTGTC (site CCCATATCTGG)
  recombinant UMI read abundance (log10): 0

## CCCATATCATGGACCGGTTTTCCCGGTAATCCGTATTTGTC (site CCCATATCTGT)
  recombinant UMI read abundance (log10): 0

## CCCATATCATGGACCGGTTTTCCCGGTAATCCGTATTTGTC (site CCCATATCTTA)
  recombinant UMI read abundance (log10): 0

## CCCATATCATGGACCGGTTTTCCCGGTAATCCGTATTTGTC (site CCCATCTCTGA)
  recombinant UMI read abundance (log10): 0

## CCCATATCATGGACCGGTTTTCCCGGTAATCCGTATTTGTC (site CCCATGTCTGA)
  recombinant UMI read abundance (log10): 0

## CCCATATCATGGACCGGTTTTCCCGGTAATCCGTATTTGTC (site CCCATTTCTGA)
  recombinant UMI read abundance (log10): 0.731

## CCCATATCATGGACCGGTTTTCCCGGTAATCCGTATTTGTC (site CCCCTATCTGA)
  recombinant UMI read abundance (log10): 0

## CCCATATCATGGACCGGTTTTCCCGGTAATCCGTATTTGTC (site CCCGTATCTGA)
  recombinant UMI read abundance (log10): 0

## CCCATATCATGGACCGGTTTTCCCGGTAATCCGTATTTGTC (site CCCTTATCTGA)
  recombinant UMI read abundance (log10): 0.395

## CCCATATCATGGACCGGTTTTCCCGGTAATCCGTATTTGTC (site CCGATATCTGA)
  recombinant UMI read abundance (log10): 0

## CCCATATCATGGACCGGTTTTCCCGGTAATCCGTATTTGTC (site CCTATATCTGA)
  recombinant UMI read abundance (log10): 0

## CCCATATCATGGACCGGTTTTCCCGGTAATCCGTATTTGTC (site CGCATATCTGA)
  recombinant UMI read abundance (log10): 0

## CCCATATCATGGACCGGTTTTCCCGGTAATCCGTATTTGTC (site CTCATATCTGA)
  recombinant UMI read abundance (log10): 0

## CCCATATCATGGACCGGTTTTCCCGGTAATCCGTATTTGTC (site GCCATATCTGA)
  recombinant UMI read abundance (log10): 0

## CCCATATCATGGACCGGTTTTCCCGGTAATCCGTATTTGTC (site TCCATATCTGA)
  recombinant UMI read abundance (log10): 0

## CCCCAAACATGGACCGGTTTTCCCGGTAATCCGTATTTGTA (site CCCCAAACTTA)
  recombinant UMI read abundance (log10): 0.19

## CCCCAAACATGGACCGGTTTTCCCGGTAATCCGTATTTGTA (site CCCCACACTTA)
  recombinant UMI read abundance (log10): 0.0105

## CCCCAAACATGGACCGGTTTTCCCGGTAATCCGTATTTGTA (site CCCCAGACTTA)
  recombinant UMI read abundance (log10): 0.00667

## CCCCAAACATGGACCGGTTTTCCCGGTAATCCGTATTTGTA (site CCCCATACTTA)
  recombinant UMI read abundance (log10): 0.102

## CCCCACCCATGGACCGGTTTTCCCGGTAATCCGTATTTGTA (site CCCCACACTTA)
  recombinant UMI read abundance (log10): 0.0263

## CCCCACCCATGGACCGGTTTTCCCGGTAATCCGTATTTGTA (site CCCCACCCTTA)
  recombinant UMI read abundance (log10): 0.00842

## CCCCACCCATGGACCGGTTTTCCCGGTAATCCGTATTTGTA (site CCCCACGCTTA)
  recombinant UMI read abundance (log10): 0.0484

## CCCCACCCATGGACCGGTTTTCCCGGTAATCCGTATTTGTA (site CCCCACTCTTA)
  recombinant UMI read abundance (log10): 1.78

## CCCCACTCATGGACCGGTTTTCCCGGTAATCCGTATTTGAC (site CCCCACTCTGT)
  recombinant UMI read abundance (log10): 1.04

## CCCCATACATGGACCGGTTTTCCCGGTAATCCGTATTTGTA (site CCCCAAACTTA)
  recombinant UMI read abundance (log10): 0

## CCCCATACATGGACCGGTTTTCCCGGTAATCCGTATTTGTA (site CCCCACACTTA)
  recombinant UMI read abundance (log10): 0.0183

## CCCCATACATGGACCGGTTTTCCCGGTAATCCGTATTTGTA (site CCCCAGACTTA)
  recombinant UMI read abundance (log10): 0

## CCCCATACATGGACCGGTTTTCCCGGTAATCCGTATTTGTA (site CCCCATACTTA)
  recombinant UMI read abundance (log10): 0.512

## CCCCGTCCATGGACCGGTTTTCCCGGTAATCCGTATTTGCA (site CCCAGTCCTTG)
  recombinant UMI read abundance (log10): 0

## CCCCGTCCATGGACCGGTTTTCCCGGTAATCCGTATTTGCA (site CCCCGTCCTTG)
  recombinant UMI read abundance (log10): 0.809

## CCCCGTCCATGGACCGGTTTTCCCGGTAATCCGTATTTGCA (site CCCGGTCCTTG)
  recombinant UMI read abundance (log10): 0.0123

## CCCCGTCCATGGACCGGTTTTCCCGGTAATCCGTATTTGCA (site CCCTGTCCTTG)
  recombinant UMI read abundance (log10): 0.00689

## CCCCTCCCATGGACCGGTTTTCCCGGTAATCCGTATTTGCG (site CCCCTCCCTCG)
  recombinant UMI read abundance (log10): 0.014

## CCCGACACATGGACCGGTTTTCCCGGTAATCCGTATTTGTA (site CCCAACACTTA)
  recombinant UMI read abundance (log10): 0.221

## CCCGACACATGGACCGGTTTTCCCGGTAATCCGTATTTGTA (site CCCCACACTTA)
  recombinant UMI read abundance (log10): 0.00237

## CCCGACACATGGACCGGTTTTCCCGGTAATCCGTATTTGTA (site CCCGACACTTA)
  recombinant UMI read abundance (log10): 0.974

## CCCGACACATGGACCGGTTTTCCCGGTAATCCGTATTTGTA (site CCCTACACTTA)
  recombinant UMI read abundance (log10): 0.0106

## CCCGCGTCATGGACCGGTTTTCCCGGTAATCCGTATTTGTC (site CCCGCGTCTGA)
  recombinant UMI read abundance (log10): 0.515

## CCCGGTACATGGACCGGTTTTCCCGGTAATCCGTATTTGCA (site CCCGGTACTTG)
  recombinant UMI read abundance (log10): 0.751

## CCCGGTACATGGACCGGTTTTCCCGGTAATCCGTATTTGCA (site CCCGGTCCTTG)
  recombinant UMI read abundance (log10): 0

## CCCGGTACATGGACCGGTTTTCCCGGTAATCCGTATTTGCA (site CCCGGTGCTTG)
  recombinant UMI read abundance (log10): 0

## CCCGGTACATGGACCGGTTTTCCCGGTAATCCGTATTTGCA (site CCCGGTTCTTG)
  recombinant UMI read abundance (log10): 0

## CCCGGTGCATGGACCGGTTTTCCCGGTAATCCGTATTTGAT (site CCAGGTGCTAT)
  recombinant UMI read abundance (log10): 0.119

## CCCGGTGCATGGACCGGTTTTCCCGGTAATCCGTATTTGAT (site CCCGGTGCTAT)
  recombinant UMI read abundance (log10): 0.907

## CCCGGTGCATGGACCGGTTTTCCCGGTAATCCGTATTTGAT (site CCGGGTGCTAT)
  recombinant UMI read abundance (log10): 0.0111

## CCCGGTGCATGGACCGGTTTTCCCGGTAATCCGTATTTGAT (site CCTGGTGCTAT)
  recombinant UMI read abundance (log10): 0.00284

## CCCGGTGCATGGACCGGTTTTCCCGGTAATCCGTATTTGCA (site CCCGGTACTTG)
  recombinant UMI read abundance (log10): 0

## CCCGGTGCATGGACCGGTTTTCCCGGTAATCCGTATTTGCA (site CCCGGTCCTTG)
  recombinant UMI read abundance (log10): 0.0126

## CCCGGTGCATGGACCGGTTTTCCCGGTAATCCGTATTTGCA (site CCCGGTGCTTG)
  recombinant UMI read abundance (log10): 0

## CCCGGTGCATGGACCGGTTTTCCCGGTAATCCGTATTTGCA (site CCCGGTTCTTG)
  recombinant UMI read abundance (log10): 0

## CCCGTATCATGGACCGGTTTTCCCGGTAATCCGTATTTGTC (site CCCATATCTGA)
  recombinant UMI read abundance (log10): 0.605

## CCCGTATCATGGACCGGTTTTCCCGGTAATCCGTATTTGTC (site CCCCTATCTGA)
  recombinant UMI read abundance (log10): 0.0235

## CCCGTATCATGGACCGGTTTTCCCGGTAATCCGTATTTGTC (site CCCGTATCTGA)
  recombinant UMI read abundance (log10): 1.83

## CCCGTATCATGGACCGGTTTTCCCGGTAATCCGTATTTGTC (site CCCTTATCTGA)
  recombinant UMI read abundance (log10): 0

## CCCGTCCCATGGACCGGTTTTCCCGGTAATCCGTATTTGGA (site CCCGTCCCTTC)
  recombinant UMI read abundance (log10): 0.00421

## CCCGTGACATGGACCGGTTTTCCCGGTAATCCGTATTTGAT (site CCCGTGACTAT)
  recombinant UMI read abundance (log10): 1.05

## CCCGTTCCATGGACCGGTTTTCCCGGTAATCCGTATTTGGC (site CCCGTTCCTGC)
  recombinant UMI read abundance (log10): 0

## CCCGTTTCATGGACCGGTTTTCCCGGTAATCCGTATTTGAG (site CCCGTTTCTCT)
  recombinant UMI read abundance (log10): 0.807

## CCCTACCCATGGACCGGTTTTCCCGGTAATCCGTATTTGCC (site CCCTAACCTGG)
  recombinant UMI read abundance (log10): 0

## CCCTACCCATGGACCGGTTTTCCCGGTAATCCGTATTTGCC (site CCCTACCCTGG)
  recombinant UMI read abundance (log10): 0.541

## CCCTACCCATGGACCGGTTTTCCCGGTAATCCGTATTTGCC (site CCCTAGCCTGG)
  recombinant UMI read abundance (log10): 0

## CCCTACCCATGGACCGGTTTTCCCGGTAATCCGTATTTGCC (site CCCTATCCTGG)
  recombinant UMI read abundance (log10): 0

## CCCTAGACATGGACCGGTTTTCCCGGTAATCCGTATTTGGG (site ACCTAGACTCC)
  recombinant UMI read abundance (log10): 0.036

## CCCTAGACATGGACCGGTTTTCCCGGTAATCCGTATTTGGG (site CCCTAGACTCC)
  recombinant UMI read abundance (log10): 0.546

## CCCTAGACATGGACCGGTTTTCCCGGTAATCCGTATTTGGG (site GCCTAGACTCC)
  recombinant UMI read abundance (log10): 0.0233

## CCCTAGACATGGACCGGTTTTCCCGGTAATCCGTATTTGGG (site TCCTAGACTCC)
  recombinant UMI read abundance (log10): 0.0148

## CCCTAGCCATGGACCGGTTTTCCCGGTAATCCGTATTTGCC (site ACCTAGCCTGG)
  recombinant UMI read abundance (log10): 0

## CCCTAGCCATGGACCGGTTTTCCCGGTAATCCGTATTTGCC (site CACTAGCCTGG)
  recombinant UMI read abundance (log10): 0

## CCCTAGCCATGGACCGGTTTTCCCGGTAATCCGTATTTGCC (site CCATAGCCTGG)
  recombinant UMI read abundance (log10): 0

## CCCTAGCCATGGACCGGTTTTCCCGGTAATCCGTATTTGCC (site CCCAAGCCTGG)
  recombinant UMI read abundance (log10): 0

## CCCTAGCCATGGACCGGTTTTCCCGGTAATCCGTATTTGCC (site CCCCAGCCTGG)
  recombinant UMI read abundance (log10): 0

## CCCTAGCCATGGACCGGTTTTCCCGGTAATCCGTATTTGCC (site CCCGAGCCTGG)
  recombinant UMI read abundance (log10): 0

## CCCTAGCCATGGACCGGTTTTCCCGGTAATCCGTATTTGCC (site CCCTAACCTGG)
  recombinant UMI read abundance (log10): 0
